# Experimental data as given in patent US8197775B2, “Detection article having fluid control film” (priority 1999, dated 2012).
# Test system: Escherichia coli ATCC 51813
# Test: Minimum inhibitory concentration (MIC) test using microchannels, MUG fluorescence read-out
# Format: cell-based
# Conditions: ATCC51813, VRB media with MUG 0.5 mg/ml, 16 hours at 37° C., control tubes and microchannels
# Procedure: Microchannel polyethylene films were heat embossed on a hydraulic press according to the procedure outlined in U.S. patent application Ser. No. 08/905,481. […] The channels were covered with ScotchPak #33 (3M Company) using an iron heated to 149 degrees C. (300 degrees F.), forming a series of capillary channels.
# A dilution series of tetracycline was prepared in VRB media (7.0 g Bacto peptone, 3.0 g yeast extract, 1.5 g bile salts per liter) containing the fluorescent indicator methylumbelliferyl glucuronide (MUG, 0.5 mg/ml). The following tetracycline concentrations were prepared: 40, 4, 0.4, 0.04, and 0.004 micrograms/ml. Approximately 1 ml of each solution was placed in a test tube. A suspension of Escherichia coli ATCC 51813 (100 microliters of approximately 10^7 bacteria/ml) was added to each tube. A syringe was used to transfer each solution into adjacent microchannels (1.6 microliters/channel). Both the control tubes and the microchannel device were incubated for 16 hours at 37° C. After incubation the samples were observed under ultraviolet radiation.
compound,measurement,value
CN(C)[C@@H]1C(O)=C(C(N)=O)C(=O)[C@@]2(O)C(O)=C3C(=O)c4c(O)cccc4[C@@](C)(O)[C@H]3C[C@@H]12 [tetracycline],MIC,4 µg/mL
